Laboratory results taken from article doi:10.1101/2023.06.20.545697v1 (biorxiv, 2023).
Values after ≈ are worked out from the molar mass of the structure shown.

How the values were obtained:
[1] = tested on: Mycobacterium tuberculosis S7; assay: microbe, parasite or virus in culture; settings: S7, 120 h, read-out: MIC99 (S7) µM
[2] = tested on: Mycobacterium tuberculosis S6; assay: microbe, parasite or virus in culture; settings: S6, 120 h, read-out: MIC99 (S6) µM

## CC(N)c1ncnn1C (stereo not shown) [SF1]
[1]
  MIC99: 250 µM (≈ 31.5 µg/mL)

## CC(C)C(N)c1ncnn1C (stereo not shown) [SF2]
[2]
  MIC99: 125 µM (≈ 19.3 µg/mL)
[1]
  MIC99: 125 µM (≈ 19.3 µg/mL)

## NCCSc1ncn[nH]1 [SF3]
[1]
  MIC99: 250 µM (≈ 36.1 µg/mL)
